In ChEMBL document CHEMBL1125526, “Penicillin derived C2-symmetric dimers as novel inhibitors of HIV-1 proteinase” (J Med Chem, 1992):

Each compound was assayed against Human immunodeficiency virus type 1 protease (Human immunodeficiency virus 1, UniProt Q72874) (assay: Inhibitory activity towards HIV-1 protease).

Question: For COC(=O)[C@@H](NC(=O)Cc1ccccc1)[C@@H]1N[C@@H](C(=O)NCCNC(C)=O)C(C)(C)S1, which IC50 is on record?
Answer: The IC50 was > 55000 nM.

Question: How did the IC50 turn out when COC(=O)[C@@H](NC(=O)Cc1ccccc1)[C@@H]1N[C@@H](C(=O)NCCNC(=O)[C@@H]2N[C@@H]([C@H](NC(=O)Cc3ccccc3)C(=O)OC)SC2(C)C)C(C)(C)S1 was run?
Answer: Its IC50 is 60 nM.

Question: With COC(=O)[C@@H](NC(=O)Cc1ccccc1)[C@@H]1N[C@@H](C(=O)NCCNC(=O)[C@@H]2N3C(=O)C(NC(=O)Cc4ccccc4)[C@H]3SC2(C)C)C(C)(C)S1 (stereo partly specified) as the compound, how does the IC50 read?
Answer: The IC50 was 500 nM.

Question: For COC(=O)[C@@H](NC(=O)Cc1ccccc1)[C@@H]1N[C@@H](C(=O)NCCCNC(=O)[C@@H]2N[C@@H]([C@H](NC(=O)Cc3ccccc3)C(=O)OC)SC2(C)C)C(C)(C)S1, which IC50 is on record?
Answer: The IC50 was > 12000 nM.

Question: CC1(C)S[C@H]([C@H](NC(=O)Cc2ccccc2)C(=O)NCc2ccccc2)N[C@H]1C(=O)NCCNC(=O)[C@@H]1N[C@@H]([C@H](NC(=O)Cc2ccccc2)C(=O)NCc2ccccc2)SC1(C)C was tested. Which IC50 did it give?
Answer: The IC50 was 0.9 nM.

Question: Which IC50 does the source give for CC1(C)S[C@H]([C@H](NC(=O)Cc2ccccc2)C(N)=O)N[C@H]1C(=O)NCCNC(=O)[C@@H]1N[C@@H]([C@H](NC(=O)Cc2ccccc2)C(N)=O)SC1(C)C here?
Answer: The IC50 was 3 nM.

Question: With COC(=O)[C@@H](NC(=O)Cc1ccccc1)[C@@H]1N[C@@H](C(=O)NNC(=O)[C@@H]2N[C@@H]([C@H](NC(=O)Cc3ccccc3)C(=O)OC)SC2(C)C)C(C)(C)S1 as the compound, how does the IC50 read?
Answer: Its IC50 is 6800 nM.

Question: CCNC(=O)[C@@H](NC(=O)Cc1ccccc1)[C@@H]1N[C@@H](C(=O)OCCOC(=O)[C@@H]2N[C@@H]([C@H](NC(=O)Cc3ccccc3)C(=O)NCC)SC2(C)C)C(C)(C)S1 was tested. Which IC50 did it give?
Answer: The IC50 was > 12000 nM.

Question: How did the IC50 turn out when CCNC(=O)[C@@H]1N[C@@H]([C@H](NC(=O)Cc2ccccc2)C(=O)OC)SC1(C)C was run?
Answer: The IC50 was > 63000 nM.

Question: With CC1(C)S[C@@H]2[C@H](NC(=O)Cc3ccccc3)C(=O)N2[C@H]1C(=O)NCCNC(=O)[C@@H]1N2C(=O)[C@@H](NC(=O)Cc3ccccc3)[C@H]2SC1(C)C as the compound, how does the IC50 read?
Answer: Its IC50 is > 70000 nM.

Question: For CCNC(=O)[C@@H](NC(=O)Cc1ccccc1)[C@@H]1N[C@@H](C(=O)NCCNC(=O)[C@@H]2N[C@@H]([C@H](NC(=O)Cc3ccccc3)C(=O)NCC)SC2(C)C)C(C)(C)S1, which IC50 is on record?
Answer: Its IC50 is 4.8 nM.
